Laboratory results taken from US20230265098A1, “ALKYNE QUINAZOLINE DERIVATIVES AS INHIBITORS OF ERBB2” (EnLiven Therapeutics, Inc., priority 2020, published 2023).
Where two headings read alike, the source gives them in different places.

Tests used:
MDA-MB-175VII cells = assay: Cell viability assay (CellTiter Glo); type: cell-based; conditions: Homo sapiens, 72 hours, 2000 cells per well, 384-well, RPMI + 10% FBS
Protocol: (§1) Cells were treated with compounds, and cell viability was measured as a metric of kinase inhibition.
(§2) The Ba/F3 cell line is IL-3-dependent mouse cell line derived from the C3H mouse strain. Ba/F3 cell lines were engineered to express human ERBB2 or EGFR kinases, rendering the cells IL-3 independent. The lines were generated via retroviral transduction utilizing a Moloney murine leukemia virus (MMLV) promoter, and constructs are stably integrated into the cell genome.
(§3) Similarly, Ba/F3 cell lines engineered to express EGFR, ERBB2, or ERBB2 mutants were grown, harvested, counted and seeded at 3000 cells per well in 96-well plates for the data sets shown in Tables B3-B4, and seeded at 300 cells per well in 384-well plates for the data set shown in Table B5. A subset of wells contained media only (low control, “LC”).
(§4) Table B2 provides the growth media and number of cells seeded per well for the each cell line.
(§5) Compounds were dissolved in DMSO and serially diluted. Serially-diluted compound or a DMSO only control (high control, “HC”) was added to the plated cells in each well. […] The final proportion of DMSO never exceeded 0.1%.
(§6) Plates were placed in a 37° C., 5% CO2 incubator for 72 hours. Plates were then removed from the incubator and equilibrated for 15 minutes at room temperature. 40 IA of CellTiter Glo reagent (Promega) was added to measure the relative level of metabolically active cells by quantifying intracellular ATP concentrations. Plates were incubated for 30 minutes at room temperature, and luminescence was measured. Percent viability was normalized to a vehicle control only using the following formula: % viability=100×(LumSample−LumLC) (LumHC−LumLC). Graphical curves were fitted using a nonlinear regression model with a sigmoidal dose response.

BT-474 cells = assay: Cell viability assay (CellTiter Glo); type: cell-based; conditions: Homo sapiens, 72 hours, 2000 cells per well, 384-well, DMEM + 10% FBS
Protocol: as §1, §2, §3, §4, §5, §6

A431 cells = assay: Cell viability assay (CellTiter Glo); type: cell-based; conditions: Homo sapiens, A-431; 72 hours; 1500 cells per well, 384-well; DMEM + 10% FBS
Protocol: as §1, §2, §3, §4, §5, §6

[1] = molecular target: T1, Ba/F3 ERBB2-P780_Y781insGSP (Homo sapiens, UniProt P04626, DUP778-780, cells depend on it); assay: Cell viability assay (CellTiter Glo); type: cell-based, mouse; conditions: 72 hours; 3000 cells per well, 96-well plates; read-out: Cell viability IC50, nM, Ba/F3 ERBB2-P780_Y781insGSP
T1 construct: Ba/F3 cell lines were engineered to express human ERBB2 or EGFR kinases, rendering the cells IL-3 independent
Protocol: as §1, §2, §3, §4, §5
Plates were placed in a 37° C., 5% CO2 incubator for 72 hours. Plates were then removed from the incubator and equilibrated for 15 minutes at room temperature. 40 IA of CellTiter Glo reagent (Promega) was added to measure the relative level of metabolically active cells by quantifying intracellular ATP concentrations. Plates were incubated for 30 minutes at room temperature, and luminescence was measured. […] Graphical curves were fitted using a nonlinear regression model with a sigmoidal dose response.

Ba/F3 ERBB2 wt = molecular target: T2, Ba/F3 ERBB2 wt (Homo sapiens, UniProt P04626); assay: Cell viability assay (CellTiter Glo); type: cell-based, mouse; conditions: 72 hours; 3000 cells per well, 96-well plates; read-out: Cell viability IC50, nM, Ba/F3 ERBB2 wt
T2 construct: Ba/F3 cell lines were engineered to express human ERBB2 or EGFR kinases, rendering the cells IL-3 independent
Protocol: as §1, §2, §3, §4, §5, §6

Ba/F3 ERBB2-G776VC = molecular target: T3, Ba/F3 ERBB2-G776VC (Homo sapiens, UniProt P04626, DELINS776-776VC, cells depend on it); assay: Cell viability assay (CellTiter Glo); type: cell-based, mouse; conditions: 72 hours; 3000 cells per well, 96-well plates; read-out: Cell viability IC50, nM, Ba/F3 ERBB2-G776VC
T3 construct: Ba/F3 cell lines were engineered to express human ERBB2 or EGFR kinases, rendering the cells IL-3 independent
T3 sequence (P04626 with tags, fused parts or gaps DELINS776-776VC): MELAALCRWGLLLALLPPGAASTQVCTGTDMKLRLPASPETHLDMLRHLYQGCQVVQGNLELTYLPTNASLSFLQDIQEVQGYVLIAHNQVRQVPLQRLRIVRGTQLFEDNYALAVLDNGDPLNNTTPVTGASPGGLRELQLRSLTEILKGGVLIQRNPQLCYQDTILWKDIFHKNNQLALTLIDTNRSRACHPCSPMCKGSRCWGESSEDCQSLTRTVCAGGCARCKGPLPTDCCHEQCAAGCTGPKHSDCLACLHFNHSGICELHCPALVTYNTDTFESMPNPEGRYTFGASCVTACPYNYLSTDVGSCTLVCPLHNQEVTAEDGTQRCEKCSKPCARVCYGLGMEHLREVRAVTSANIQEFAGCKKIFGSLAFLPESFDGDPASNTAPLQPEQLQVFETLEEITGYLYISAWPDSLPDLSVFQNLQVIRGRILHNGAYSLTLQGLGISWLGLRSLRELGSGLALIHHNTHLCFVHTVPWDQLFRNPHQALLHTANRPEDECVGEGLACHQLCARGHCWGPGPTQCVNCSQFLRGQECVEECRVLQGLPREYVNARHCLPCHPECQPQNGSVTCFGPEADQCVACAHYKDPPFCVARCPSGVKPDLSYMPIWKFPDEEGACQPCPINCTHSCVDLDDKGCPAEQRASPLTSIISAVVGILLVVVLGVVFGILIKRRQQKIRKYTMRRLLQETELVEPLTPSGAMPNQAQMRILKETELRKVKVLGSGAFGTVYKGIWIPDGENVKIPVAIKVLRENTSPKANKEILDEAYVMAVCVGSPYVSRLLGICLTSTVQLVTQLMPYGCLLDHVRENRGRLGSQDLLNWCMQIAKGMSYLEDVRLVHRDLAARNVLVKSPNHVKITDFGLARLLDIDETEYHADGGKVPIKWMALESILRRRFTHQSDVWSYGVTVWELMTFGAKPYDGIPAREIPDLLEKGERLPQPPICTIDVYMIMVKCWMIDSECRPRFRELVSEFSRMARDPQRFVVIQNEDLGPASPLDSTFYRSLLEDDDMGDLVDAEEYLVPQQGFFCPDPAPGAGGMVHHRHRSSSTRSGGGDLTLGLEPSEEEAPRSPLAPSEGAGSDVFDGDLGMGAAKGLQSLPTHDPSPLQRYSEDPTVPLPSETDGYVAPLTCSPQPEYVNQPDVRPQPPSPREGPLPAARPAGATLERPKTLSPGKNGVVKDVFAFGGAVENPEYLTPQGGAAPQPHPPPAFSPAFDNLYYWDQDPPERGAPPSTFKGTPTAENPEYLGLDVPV
Protocol: as §1, §2, §3, §4, §5, §6

[2] = molecular target: T4, Ba/F3 ERBB2 A775_G776insYVMA (Homo sapiens, UniProt P04626, DUP772-775, cells depend on it); assay: Cell viability assay (CellTiter Glo); type: cell-based, mouse; conditions: 72 hours
T4 construct: Ba/F3 cell lines were engineered to express human ERBB2 or EGFR kinases, rendering the cells IL-3 independent
T4 sequence (P04626 with tags, fused parts or gaps DUP772-775): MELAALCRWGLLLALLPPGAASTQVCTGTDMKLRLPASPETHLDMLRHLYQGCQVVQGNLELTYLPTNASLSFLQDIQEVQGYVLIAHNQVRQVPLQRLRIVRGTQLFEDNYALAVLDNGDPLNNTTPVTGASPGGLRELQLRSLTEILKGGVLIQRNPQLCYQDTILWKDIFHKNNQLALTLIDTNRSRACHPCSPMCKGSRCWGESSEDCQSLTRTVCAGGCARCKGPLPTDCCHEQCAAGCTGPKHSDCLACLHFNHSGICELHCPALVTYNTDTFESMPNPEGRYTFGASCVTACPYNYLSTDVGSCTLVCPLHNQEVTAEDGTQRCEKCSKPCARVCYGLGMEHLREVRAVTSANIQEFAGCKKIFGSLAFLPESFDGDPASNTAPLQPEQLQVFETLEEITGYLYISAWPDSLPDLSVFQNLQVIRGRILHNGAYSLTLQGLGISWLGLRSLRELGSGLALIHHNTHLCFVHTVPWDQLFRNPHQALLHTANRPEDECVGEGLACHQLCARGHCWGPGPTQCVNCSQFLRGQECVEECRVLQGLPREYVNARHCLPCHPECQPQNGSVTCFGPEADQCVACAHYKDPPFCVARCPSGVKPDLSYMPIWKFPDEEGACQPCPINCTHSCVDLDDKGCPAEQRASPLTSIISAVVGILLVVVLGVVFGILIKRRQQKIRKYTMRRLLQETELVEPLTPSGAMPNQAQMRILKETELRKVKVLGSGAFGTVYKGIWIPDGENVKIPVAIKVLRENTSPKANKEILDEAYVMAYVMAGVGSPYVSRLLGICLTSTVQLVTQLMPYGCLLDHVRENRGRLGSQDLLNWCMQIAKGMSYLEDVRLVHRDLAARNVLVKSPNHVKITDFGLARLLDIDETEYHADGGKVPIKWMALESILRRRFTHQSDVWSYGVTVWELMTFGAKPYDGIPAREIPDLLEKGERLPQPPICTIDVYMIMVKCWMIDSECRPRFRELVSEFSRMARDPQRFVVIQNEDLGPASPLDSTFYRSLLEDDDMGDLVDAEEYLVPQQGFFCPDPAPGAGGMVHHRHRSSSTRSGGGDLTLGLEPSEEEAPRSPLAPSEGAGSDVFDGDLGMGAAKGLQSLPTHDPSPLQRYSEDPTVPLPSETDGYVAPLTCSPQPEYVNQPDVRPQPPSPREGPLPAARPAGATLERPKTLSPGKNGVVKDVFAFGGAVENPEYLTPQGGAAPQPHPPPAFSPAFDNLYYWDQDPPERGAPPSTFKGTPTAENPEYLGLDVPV
Protocol: as §1, §2, §3, §4, §5, §6

[3] = molecular target: T5, phosphorylated ERBB2 (pERBB2) (Homo sapiens, UniProt P04626); assay: Detection of phosphorylated ERBB2 (pERBB2) by ELISA in BT-474 cells; type: cell-based; conditions: four hours incubation with compound, OD 450 nm
T5 construct: endogenous in cells; host or cells: BT-474
T5 sequence (P04626 23-1255): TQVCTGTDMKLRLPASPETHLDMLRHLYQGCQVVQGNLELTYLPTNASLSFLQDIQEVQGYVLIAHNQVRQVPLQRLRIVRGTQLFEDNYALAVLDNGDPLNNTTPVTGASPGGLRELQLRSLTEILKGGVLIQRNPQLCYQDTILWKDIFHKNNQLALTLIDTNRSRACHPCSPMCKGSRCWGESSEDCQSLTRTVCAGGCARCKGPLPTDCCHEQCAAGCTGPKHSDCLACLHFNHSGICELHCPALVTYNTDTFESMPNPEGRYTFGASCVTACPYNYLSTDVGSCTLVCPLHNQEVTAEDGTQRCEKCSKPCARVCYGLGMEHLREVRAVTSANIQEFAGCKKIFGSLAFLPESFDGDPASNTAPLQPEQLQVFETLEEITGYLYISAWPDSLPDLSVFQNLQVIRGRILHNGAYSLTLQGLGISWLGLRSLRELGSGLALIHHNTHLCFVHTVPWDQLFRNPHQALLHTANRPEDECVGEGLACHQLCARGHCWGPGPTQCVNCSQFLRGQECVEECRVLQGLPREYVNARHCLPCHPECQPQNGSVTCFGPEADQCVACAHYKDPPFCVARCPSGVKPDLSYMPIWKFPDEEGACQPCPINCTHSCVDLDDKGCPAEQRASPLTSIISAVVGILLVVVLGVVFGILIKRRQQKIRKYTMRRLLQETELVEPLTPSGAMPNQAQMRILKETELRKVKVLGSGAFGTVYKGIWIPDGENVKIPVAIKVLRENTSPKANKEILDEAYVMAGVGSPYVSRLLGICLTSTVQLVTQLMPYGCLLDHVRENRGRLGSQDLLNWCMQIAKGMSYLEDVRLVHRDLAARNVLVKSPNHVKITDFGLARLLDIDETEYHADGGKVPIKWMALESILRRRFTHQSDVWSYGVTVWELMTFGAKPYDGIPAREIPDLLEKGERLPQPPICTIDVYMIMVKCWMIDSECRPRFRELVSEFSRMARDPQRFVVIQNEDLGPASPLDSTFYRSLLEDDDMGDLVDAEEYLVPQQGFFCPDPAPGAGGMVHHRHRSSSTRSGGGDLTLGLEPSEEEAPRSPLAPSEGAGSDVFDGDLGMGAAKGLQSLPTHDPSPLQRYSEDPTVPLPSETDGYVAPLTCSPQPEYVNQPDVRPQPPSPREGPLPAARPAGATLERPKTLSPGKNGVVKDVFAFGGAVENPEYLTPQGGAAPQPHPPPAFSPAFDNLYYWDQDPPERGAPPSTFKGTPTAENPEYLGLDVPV
Protocol: BT-474 cells were seeded into a 96-well at 2.0*10^4 cells/100 μl/well.
Compounds were dissolved and serially diluted in DMSO. The compounds were then were added, mixed, and incubated for four hours at 37° C., 5% CO2. Compounds were added using four-fold dilutions at final concentrations ranging from 10 μM to 0.01 nM.
Following the four hour incubation with compounds, cell lysates were prepared. Plates were centrifuged for 5 min at 3000 RPM, and supernatant was removed from each well. Cells were washed 3 times by resuspension in 150 μl PBS, followed by centrifugation and removal of the supernatant, as above. […] Cells were incubated with lysis buffer for 1 hour at 4° C., and then stored at −80° C.
Enzyme-linked immunosorbent assays (ELISA) were performed to measure phosphorylated ERBB2 levels. […] The next day, plates were washed with PBS+0.05% Tween20 (PBST). 150 μl of 5% BSA blocking solution was added for 1 hour at room temperature, with shaking. Plates were washed with PBST. Cell lysates were thawed and 100 μl of lysate was added to the ELISA plate. The plates were incubated for 2 hours at room temperature, with shaking. […] Plates were incubated for 1 hour at room temperature, with shaking. Plates were then washed with PBST, and 100 μl TMB substrate solution (R&D Systems, cat #DY999) was added. Plate were incubated in the dark for 20 minutes at room temperature. 50 μl of Stop solution (R&D Systems, cat #DY994) (50 μl) was added to each well and mixed.
Optical density at 450 nm was read on an EnSpire plate reader (Perkin Elmer). The remaining kinase activity by calculated using the following formula: % Relative activity=100×(A450sample−A450LC)/(A450HC−A450LC). The low and high control values (“LC” and “HC”) were generated from lysate from wells without cells or with cells treated with 0.1% DMSO, respectively.

[4] = molecular target: T6, Ba/F3 ERBB2-V777_G778insGC (Homo sapiens, UniProt P04626, INS778CG, cells depend on it); assay: Cell viability assay (CellTiter Glo); type: cell-based, mouse; conditions: 72 hours; 3000 cells per well, 96-well plates; read-out: Cell viability IC50, nM, Ba/F3 ERBB2-V777_G778insGC
T6 construct: Ba/F3 cell lines were engineered to express human ERBB2 or EGFR kinases, rendering the cells IL-3 independent
Protocol: as §1, §2, §3, §4, §5, §6

Ba/F3 ERBB2-V777L = molecular target: T7, Ba/F3 ERBB2-V777L (Homo sapiens, UniProt P04626, V777L, cells depend on it); assay: Cell viability assay (CellTiter Glo); type: cell-based, mouse; conditions: 72 hours; 3000 cells per well, 96-well plates; read-out: Cell viability IC50, nM, Ba/F3 ERBB2-V777L
T7 construct: Ba/F3 cell lines were engineered to express human ERBB2 or EGFR kinases, rendering the cells IL-3 independent
Protocol: as §1, §2, §3, §4, §5, §6

Ba/F3 ERBB2-L755S = molecular target: T8, Ba/F3 ERBB2-L755S (Homo sapiens, UniProt P04626, L755S, cells depend on it); assay: Cell viability assay (CellTiter Glo); type: cell-based, mouse; conditions: 72 hours; 3000 cells per well, 96-well plates; read-out: Cell viability IC50, nM, Ba/F3 ERBB2-L755S
T8 construct: Ba/F3 cell lines were engineered to express human ERBB2 or EGFR kinases, rendering the cells IL-3 independent
Protocol: as §1, §2, §3, §4, §5, §6

Ba/F3 ERBB2-T798M = molecular target: T9, Ba/F3 ERBB2-T798M (Homo sapiens, UniProt P04626, T798M, cells depend on it); assay: Cell viability assay (CellTiter Glo); type: cell-based, mouse; conditions: 72 hours; 3000 cells per well, 96-well plates; read-out: Cell viability IC50, nM, Ba/F3 ERBB2-T798M
T9 construct: Ba/F3 cell lines were engineered to express human ERBB2 or EGFR kinases, rendering the cells IL-3 independent
Protocol: as §1, §2, §3, §4, §5, §6

Ba/F3 ERBB2-L869R = molecular target: T10, Ba/F3 ERBB2-L869R (Homo sapiens, UniProt P04626, L869R, cells depend on it); assay: Cell viability assay (CellTiter Glo); type: cell-based, mouse; conditions: 72 hours; 3000 cells per well, 96-well plates; read-out: Cell viability IC50, nM, Ba/F3 ERBB2-L869R
T10 construct: Ba/F3 cell lines were engineered to express human ERBB2 or EGFR kinases, rendering the cells IL-3 independent
Protocol: as §1, §2, §3, §4, §5, §6

[5] = molecular target: T11, phosphorylated EGFR (pEGFR) (Homo sapiens, UniProt P00533); assay: Detection of phosphorylated EGFR (pEGFR) in EGF-stimulated A431 cells (AlphaLISA); type: cell-based; conditions: A431 cells (10% FBS), 4 hours with compound, then EGF 30 ng/mL for 10 minutes
T11 construct: endogenous in cells; host or cells: A431
T11 sequence (P00533 25-1210): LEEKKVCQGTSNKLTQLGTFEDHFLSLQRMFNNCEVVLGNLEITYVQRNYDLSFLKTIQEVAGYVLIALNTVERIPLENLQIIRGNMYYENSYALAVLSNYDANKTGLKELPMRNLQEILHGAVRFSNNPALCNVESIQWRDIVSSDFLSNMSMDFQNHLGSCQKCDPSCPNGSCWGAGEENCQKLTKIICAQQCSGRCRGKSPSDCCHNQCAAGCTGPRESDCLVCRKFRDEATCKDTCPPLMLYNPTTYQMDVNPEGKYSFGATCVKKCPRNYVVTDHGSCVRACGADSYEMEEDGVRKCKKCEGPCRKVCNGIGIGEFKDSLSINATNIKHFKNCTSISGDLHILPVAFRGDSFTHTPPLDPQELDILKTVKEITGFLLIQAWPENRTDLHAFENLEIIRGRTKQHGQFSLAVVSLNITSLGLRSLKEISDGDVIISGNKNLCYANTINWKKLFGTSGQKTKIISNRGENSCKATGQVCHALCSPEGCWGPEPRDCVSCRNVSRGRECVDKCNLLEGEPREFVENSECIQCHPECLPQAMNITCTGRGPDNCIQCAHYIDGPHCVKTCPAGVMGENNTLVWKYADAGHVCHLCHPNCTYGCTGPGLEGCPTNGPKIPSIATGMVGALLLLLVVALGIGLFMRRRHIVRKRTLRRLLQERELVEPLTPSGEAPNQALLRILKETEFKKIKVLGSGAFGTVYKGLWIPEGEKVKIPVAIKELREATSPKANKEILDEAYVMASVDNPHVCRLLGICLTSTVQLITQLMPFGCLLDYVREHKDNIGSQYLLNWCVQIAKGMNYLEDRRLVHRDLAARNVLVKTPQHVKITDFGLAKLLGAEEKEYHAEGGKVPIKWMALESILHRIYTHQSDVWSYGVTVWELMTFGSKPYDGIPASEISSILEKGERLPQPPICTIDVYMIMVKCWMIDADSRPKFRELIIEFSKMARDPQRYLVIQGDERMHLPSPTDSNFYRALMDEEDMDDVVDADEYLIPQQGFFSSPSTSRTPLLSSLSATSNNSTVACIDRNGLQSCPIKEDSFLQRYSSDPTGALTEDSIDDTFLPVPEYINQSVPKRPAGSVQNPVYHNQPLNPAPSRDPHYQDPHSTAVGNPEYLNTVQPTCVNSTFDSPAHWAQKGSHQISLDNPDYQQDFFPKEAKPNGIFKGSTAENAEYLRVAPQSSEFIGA
Protocol: Enzyme-linked immunosorbent assays (ELISA) were performed to measure phosphorylated EGFR levels using A431 cells (10% FBS). A431 (1.0*10^4 cells/40 μl/well) cells were seeded in 384 well. Compounds were dissolved in DMSO, serially diluted in DMSO and then were added, mixed, and incubated for 4 hours at 37° C., 5% CO2. Following the 4-hours incubation, cells were stimulated for 10 minutes with EGF (Invitrogen, cat #PHG0311) at a final concentration of 30 ng/mL in the incubator. The media was aspirated and cells were lysed in 10 μL lysis buffer with protease and phosphatase inhibitors (PerkinElmer, cat #ALSU-PEGFR-A50K). The plates were placed on a shaker for 5 minutes and then incubated for 30 min at 4° C. for complete lysis. The lysate was transferred to an Optiplate (Perkin Elmer, cat #6007290).
Acceptor mix (PerkinElmer, cat #ALSU-PEGFR-A50K) was prepared just before use and 5 μL was dispensed to all the wells, followed by a 1.5-2 h incubation at room temperature in dark. The donor mix (PerkinElmer, cat #ALSU-PEGFR-A50K) was prepared under low light conditions prior to use and […] of donor mix was added to all the wells under subdued lighting or green filters. The plates were placed on a shaker for 5 min, sealed, and incubated overnight at room temperature in dark. Plates were read on the Envision (PerkinElmer) using standard AlphaLISA settings.
The percentage of inhibition on EGFR phosphorylation was calculated following equation: % Inhibition=100×(LumHC−LumSample)/(LumHC−LumLC). The low and high controls (LC/HC) are generated from lysate from wells with cells treated with DMSO or […] Staurosporine (BioAustralis, cat #BIA-S1086), […]. IC50 values were calculated by fitting the Curve using XLfit (v5.3.1.3), equation 201: Y=Bottom+(Top−Bottom)/(1+10^((LogIC50−X)*HillSlope)).

[6] = 3000 cells per well, 96-well plates (Tables B3-B4), read-out: Cell viability IC50, nM, Ba/F3 ERBB2 A775_G776insYVMA
[7] = 300 cells per well, 384-well plates (Table B5), read-out: Cell Line: Ba/F3 ERBB2 A775 G776ins YVMA IC50

Structure (SMILES)	IC50 (MDA-MB-175VII cells)	IC50 (BT-474 cells)	IC50 (A431 cells)	GI50 [1]	GI50 (Ba/F3 ERBB2 wt)	GI50 (Ba/F3 ERBB2-G776VC)	GI50 [2, 6]	IC50 [3]	GI50 [4]	GI50 (Ba/F3 ERBB2-V777L)	GI50 (Ba/F3 ERBB2-L755S)	GI50 (Ba/F3 ERBB2-T798M)	GI50 (Ba/F3 ERBB2-L869R)	IC50 [5]	GI50 [2, 7]
CC#CC(=O)Nc1ccc2ncnc(Nc3ccc(Oc4ccn(C)c(=O)c4)c(C)c3)c2c1 [Compound 3, N-[4-([3-methyl-4-[(1-methyl-2-oxopyridin-4-yl)oxy]phenyl]amino)quinazolin-6-yl]but-2-ynamide]	43.3 nM	13.5 nM	4440 nM	7.1 nM	18 nM	30 nM	8.1 nM	152 nM	–	–	–	–	–	–	–
CC#CC(=O)Nc1ccc2ncnc(Nc3ccc(Oc4ccc(C)nc4)c(C)c3)c2c1 [Compound 5, N-[4-([3-methyl-4-[(6-methylpyridin-3-yl)oxy]phenyl]amino)quinazolin-6-yl]but-2-ynamide]	–	–	–	1.1 nM	2.3 nM	3.8 nM	8.3 nM	–	1.3 nM	1.1 nM	6 nM	44 nM	2.3 nM	–	–
CC#CC(=O)N(C)c1ccc2ncnc(Nc3ccc(Oc4ccn5ncnc5c4)cc3)c2c1 [Compound 8, N-methyl-N-[4-[(4-[[1,2,4]triazolo[1,5-a]pyridin-7-yloxy]phenyl)amino]quinazolin-6-yl]but-2-ynamide]	562 nM	16.7 nM	> 10000 nM	20.4 nM	31 nM	117 nM	276 nM	72.9 nM	34 nM	11 nM	159 nM	1500 nM	52 nM	–	–
Cc1cc(Nc2ncnc3cc(OCCO)c(NC(=O)C#CC4CC4)cc23)ccc1Oc1ccn2ncnc2c1 [Compound 168, 3-cyclopropyl-N-[7-(2-hydroxyethoxy)-4-[(3-methyl-4-[[1,2,4]triazolo[1,5-a]pyridin-7-yloxy]phenyl)amino]quinazolin-6-yl]prop-2-ynamide]	–	2.17 nM	–	–	–	–	–	17 nM	–	–	–	–	–	70.9 nM	–
CC#CC(=O)Nc1ccc2ncnc(Nc3ccc(Oc4ccc5c(c4)ncn5C)c(C)c3)c2c1 [Compound 212, N-[4-({3-methyl-4-[(1-methyl-1,3-benzodiazol-5-yl)oxy]phenyl}amino)quinazolin-6-yl]but-2-ynamide]	–	–	–	–	–	–	–	52.3 nM	–	–	–	–	–	377 nM	9.41 nM
CC#CC(=O)Nc1ccc2ncnc(Nc3ccc(Oc4ccc5c(c4)ncn5C)c(C)c3)c2c1F [Compound 213, N-[5-fluoro-4-({3-methyl-4-[(1-methyl-1,3-benzodiazol-5-yl)oxy]phenyl}amino)quinazolin-6-yl]but-2-ynamide]	–	–	–	–	–	–	–	32.4 nM	–	–	–	–	–	579 nM	9.65 nM
